The results in this text go back to US9487462B2, “Inhibitors of matrix metalloproteinases” (PharmaHungary 2000 Kft., priority 2010, dated 2016).

One series addresses MMP1 (Homo sapiens (Human), UniProt P03956). Nature of the series: MMP activity assay (fluorogenic substrate), MMP1. Particulars: Table 2; read-out: MM1 IC50. It counts as biochemical.
Series [1] in a line: Cytotoxicity, alamarBlue viability, MRC-5. It counts as cell-based. Particulars: human, MRC-5 fibroblast cells, 48 hours incubation, read-out: MRC-5 LC50. The procedure, abridged:
(§1)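 Cells exposed to compound dilutions for 48 hours, then alamarBlue added for 4 hours; fluorescence read at ex 540/em 590 nm. IC50 from six concentrations run in duplicate.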

Another series deals with isolated rat hearts. Kind of series: Myocardial ischemia/reperfusion injury in isolated rat hearts (Langendorff), infarct size. To be noted: 5 μM final concentration; isolated rat hearts, 30 min global ischemia, 120 min reperfusion. It counts as ex vivo. Here is the method:
Male Wistar rats were anesthetized with diethyl ether, heparin (500 U/kg i.v.) was administered and hearts were isolated. The hearts were assigned to three groups: (i) DMSO control and (ii) Compound 1 (1 μM) and (iii) Compound 1 (10 μM) treated. Stock solution of inhibitors was prepared in DMSO. The final DMSO concentration in all assays was 0.1%. Hearts were perfused in Langendorff mode with constant pressure (100 H2O cm) for 20 min at 37° C. then exposed to global ischemia for 30 min followed by 120 min of reperfusion. The DMSO and inhibitors were dissolved in Krebs-Henseleit buffer and administered only before onset of ischemia for 20 min (pretreatment) and during the first 30 min of reperfusion (FIG. 6). At the end of reperfusion, infarct size (IS) was defined by triphenyltetrazolium chloride staining (Csonka et al., 2010).
In separate experiments hearts were perfused to test cardioprotective effect of ALBH-know compound at 5 μM final concentration. The same protocol was used as mentioned above.

Series [2] is described as follows: Cytotoxicity, alamarBlue viability, HCT116. Particulars: human, HCT116 colon tumor cells, 48 hours incubation, read-out: HCT116 LC50. It counts as cell-based. The procedure, abridged: as §1
The next series concerns the target MMP13 (Homo sapiens (Human), UniProt P45452). Kind of series: MMP activity assay (fluorogenic substrate), MMP13 catalytic domain. Type of series: biochemical. Particulars: Table 2; read-out: MMP13 IC50.
The next series deals with MMP-2 (Rattus norvegicus (Rat), UniProt P33436). Nature of the series: In vitro zymography assay (gelatin), MMP-2. Type of series: biochemical. To be noted: % ± SD. The method, then: MMP-2 and MMP-9 enzymes were isolated from rat hearts and from rat spleen while human, recombinant MMP-1 and MMP-13 enzymes used were commercial. MMP-2, -9, -13 enzymes were separated by electrophoresis during non-reducing conditions on 8% SDS-polyacrylamide gels copolymerized with 2 mg/ml gelatin from porcine skin (Sigma Aldrich) while MMP-1 was separated under the same conditions on 8% SDS-polyacrylamide gels copolymerized with 2 mg/ml casein (Sigma Aldrich). […] In case of MMP-13 p-aminophenylmercuric acetate (APMA) was used for enzyme activation at 37° C. for 30 min. After electrophoresis, gels were washed in 2.5% Triton-X 100 with agitation and then incubated for 20 hrs at 37° C. in enzyme incubation buffer (50 mM Tris-HCl, pH 7.5, containing 5 mM CaCl2, 200 mM NaCl) with or without MMP inhibitor. Zymographic gels were stained in Coomassie Brilliant Blue R-250 and de-stained. Gelatin and casein zymograms were scanned. MMP activity is detected as a white zone on a blue background and the clear bands in the gel can be quantified by densitometry. The obtained density values were measured and % inhibition values calculated (Kupai et al., 2010). The table below summarizes the prescreen inhibition values determined for different MMP inhibitors on MMP1, -2, -9, -13.
MMP-2, sequence (P33436 110-662): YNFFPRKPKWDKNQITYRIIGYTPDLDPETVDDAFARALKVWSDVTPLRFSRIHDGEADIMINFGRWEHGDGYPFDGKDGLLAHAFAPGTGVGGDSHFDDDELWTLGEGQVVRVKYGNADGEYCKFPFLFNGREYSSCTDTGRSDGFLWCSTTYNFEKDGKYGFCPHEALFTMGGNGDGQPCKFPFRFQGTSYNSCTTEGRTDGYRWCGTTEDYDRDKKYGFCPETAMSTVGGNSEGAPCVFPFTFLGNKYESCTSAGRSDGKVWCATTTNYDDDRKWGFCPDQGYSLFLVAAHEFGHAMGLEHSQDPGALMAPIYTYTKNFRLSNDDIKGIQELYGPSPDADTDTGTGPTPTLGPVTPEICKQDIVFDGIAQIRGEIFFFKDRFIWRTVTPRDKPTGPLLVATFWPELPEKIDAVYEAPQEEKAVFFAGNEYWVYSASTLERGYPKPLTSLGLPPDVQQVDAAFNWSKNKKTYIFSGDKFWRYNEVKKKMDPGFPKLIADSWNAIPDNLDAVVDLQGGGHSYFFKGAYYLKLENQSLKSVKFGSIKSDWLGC

Another series concerns the target MMP9 (Homo sapiens, UniProt P14780). Nature of the series: MMP activity assay (fluorogenic substrate), MMP9 catalytic domain. Type of series: biochemical. Particulars: Table 2.
Series [3] relates to healthy human fibroblast cell line MRC-5. Kind of series: Cytotoxicity, alamarBlue viability, MRC-5. It counts as cell-based. Particulars: 48 hours incubation, read-out: MRC-5 LC50. The procedure, abridged: as §1
For orientation: Resazurin is reduced to fluorescent resorufin, in cell work by metabolically active cells.

Series [4] deals with human colon tumor cell line HCT116. Kind of series: Cytotoxicity, alamarBlue viability, HCT116. Type of series: cell-based. To be noted: 48 hours incubation, read-out: HCT116 LC50. The procedure, abridged: as §1
The target of a further series is MMP2 (Homo sapiens, UniProt P08253). Nature of the series: MMP activity assay (fluorogenic substrate), MMP2 catalytic domain. It counts as biochemical. Particulars: Table 2; read-out: MMP2 IC50.

SMILES strings stand for the structures. Counter-ions that a name gives are not always drawn.

MMP1, sequence (P03956 100-469, species assumed): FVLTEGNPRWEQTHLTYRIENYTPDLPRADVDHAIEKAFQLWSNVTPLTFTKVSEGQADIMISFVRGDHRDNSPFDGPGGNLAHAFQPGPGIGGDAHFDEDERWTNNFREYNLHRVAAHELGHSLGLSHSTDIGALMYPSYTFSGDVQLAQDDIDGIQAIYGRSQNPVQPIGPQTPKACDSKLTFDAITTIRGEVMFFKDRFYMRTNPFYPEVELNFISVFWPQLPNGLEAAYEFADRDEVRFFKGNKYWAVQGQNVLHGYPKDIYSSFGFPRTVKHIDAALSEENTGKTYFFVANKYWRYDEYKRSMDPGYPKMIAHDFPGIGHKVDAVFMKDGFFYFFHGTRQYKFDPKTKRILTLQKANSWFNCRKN

One may read the IC50 as the midpoint of a concentration-inhibition curve. Broadly, the inhibition is the share of the control response that was lost under treatment. Consider `O=C(O)c1csc(CN(Cc2ccc(F)cc2)Cc2ccc(OCc3ccccc3)cc2)n1` [ALBH-known, 2-[({[4-(benzyloxy)phenyl]methyl}[(4-fluorophenyl)methyl]amino)methyl]-1,3-thiazole-4-carboxylic acid, reference compound], for which the concentration for half-maximal inhibition (IC50) on MMP1 is 3.6 µM; on MMP13 it was 1.62 µM; against MMP9 it was 15 µM. Also, the results for the CC50 at 48 h in [1] and in series [2] were 33 µM and 3.5 µM, respectively. Besides, the “reduction of myocardial IS as compared to vehicle” value with isolated rat hearts was determined as 72.01±4.96%. For the same compound, at MMP-2 (1 μM), the “% inhibition MMP-2 (72 kDa)” value is reported as “No inhibition”. In addition, at MMP-2 (100 μM, read-out: % inhibition MMP-2 (72 kDa)), the inhibition at 100 µM turned out to be 100%.
As to `O=C(O)c1c[nH]c(CN(Cc2ccc(F)cc2)Cc2ccc(OCc3ccccc3)cc2)n1` [Compound 30 HCl, 2-[({[4-(Benzyloxy)phenyl]methyl}[(4-fluorophenyl)methyl]amino)methyl]-1H-imidazole-4-carboxylic acid], the 50% inhibitory concentration (IC50) on MMP1 turned out to be 33 µM; at MMP2, 15 µM; at MMP13 it was 3.3 µM; on MMP9, 100 µM. The CC50 in series [3] came to 15 µM; in [4], 5.6 µM.
